These results are taken from patent US11365202B2, “Antimalarial compounds, process for preparation and their use for drug resistant malaria” (Council of Scientific and Industrial Research, priority 2018, dated 2022).

Like-named read-outs stand apart in the source and are kept apart here. Some results are limits rather than exact numbers.

One data set deals with P. falciparum 3D7. Kind of data set: P. falciparum growth inhibition assay, 3D7 strain. The following applies: Plasmodium falciparum, read-out: EC50 on P. falciparum 3D7. It counts as cell-based. The method, then:
(§1) P. falciparum strain 3D7, Dd2 and 7G8 were cultured in RPMI media (Invitrogen) supplemented with 0.5% albumax and 4% haematocrit using a protocol described previously [Trager and Jensen (Science,1976; 193:673-675)]. Cultures were synchronized by repeated sorbitol treatment following Lambros and Vanderberg (J Parasitol; 1979; 65:418-420). Each growth inhibition assay was performed in triplicate and the experiment was repeated twice. Each well contained 0.5 ml of complete media [RPMI (invitrogen) with 0.5% albumax], 4% haematocrit and the parasitaemia adjusted to ˜1%; the compound added to the parasite cultures to desired final concentrations (0-100 µM) and same amount of solvent (DMSO) was added to the control wells. The cultures were allowed to grow further for 48 h. Parasite growth was assessed by DNA fluorescent dye-binding assay using SYBR green (Sigma) following Smilkstein et al (Antimicrob Agents Chemother.; 2004, 48, 1803-1806). • f) In Vitro Toxicity Assay on CHO Cells

A further data set concerns P. falciparum 7G8. The data set can be described thus: P. falciparum growth inhibition assay, 7G8 strain. It counts as cell-based. The note with it: Plasmodium falciparum. The method, then: as §1
A further data set concerns P. falciparum Dd2. Kind of data set: P. falciparum growth inhibition assay, Dd2 strain. The following applies: Plasmodium falciparum. The data set is classed as cell-based. The method, then: as §1
The next data set has as its system P. berghei. Kind of data set: In vivo parasiticidal assay with P. berghei mice malaria model. The following applies: for protection in treated group of mice: 12.5 mg/kg of body weight; for Complete Protection - Mice with complete parasite clearance / Survival after treatment: 4 doses of 12.5 mg/Kg of body weight, infected BALB/c mice. The method, then: Five groups of female BALB/c mice, 6-8 weeks of age (four mice/group) were used for testing the in vivo parsiticidal and protective efficacy of different drug treatments. Mice were injected IP with 1×10^6 P. berghei infected erythrocytes. The drug treatment was initiated 5 days after inducing parasitemia; mice in a group were given 4 doses of a compound at 12.5 mg/Kg of body weight. Control mice were given solvent alone. The parasitemia was assessed everyday in thin smears of Giemsa stained RBCs from tail blood of each mouse, by counting parasitized erythrocytes in more than 10,000 erythrocytes. Time of death of the mice in each group was also monitored.

Another data set concerns A549 human cells. The data set can be described thus: In vitro toxicity on mammalian cell culture. The data set is classed as cell-based. The note with it: for EC50: Homo sapiens, A549, in vitro toxicity.
Setting [1] is: 7G8, read-out: EC50 on P. falciparum 7G8.
[2] abbreviates: DD2, read-out: EC50 on P. falciparum Dd2.

For orientation: EC50 means the concentration at which the effect is half-maximal. Regarding `CCOP(=O)(/C=C/C(NC(=O)[C@H](CC(C)C)NC(=O)[C@@H]1C[C@@H](O[C@H]2O[C@@H]3OC4(C)CC[C@H]5[C@H](C)CC[C@@H]([C@H]2C)[C@@]35OO4)CN1C(=O)OCc1ccccc1)c1ccccc1)OCC` (stereo in doubt) [Compound 5, Benzyl (2S,4R)-2-(((2S)-1-(((E)-3-(diethoxyphosphoryl)-1-phenylallyl)amino)-4-methyl-1-oxopentan-2-yl)carbamoyl)-4-(((3R,5aS,6R,8aS,9R,10S,12R,12aR)-3,6,9-trimethyldeca hydro-12H-3,12-epoxy[1,2]dioxepino[4,3-i]isochromen-10-yl)oxy)pyrrolidine-1-carboxylate], in the data set with P. falciparum 3D7 (3D7, 48 h), the EC50 is 2.57 nM. For the same compound, the EC50 with P. falciparum 7G8 (setting [1]) was found to be 1.2 nM. Further, the EC50 in the data set with P. falciparum Dd2 (setting [2]) came to 5.5 nM. Further, in the data set on P. berghei, the “protection in treated group of mice” value is reported as 100%, the “Complete Protection - Mice with complete parasite clearance” value (shortened to “Complete Protection - Mice”) was 100% of treated mice and the Survival after treatment was greater than 60 days. Moreover, in the data set with A549 human cells, the “in vitro toxicity on A549 human cells (in words)” value is given as “non-toxic” and a half-maximal response (EC50) required 1280 ± 156 nM.

With `C[C@@H]1CC[C@H]2[C@@H](C)C(=O)O[C@@H]3O[C@@]4(C)CC[C@@H]1[C@]32OO4` [Artemisinin, reference compound], the EC50 with P. falciparum 3D7 (3D7, chloroquine-sensitive strain, in vitro culture, 48 h) was roughly 27 nM; in the data set with P. falciparum 7G8 (7G8, Chloroquine and Pyrimethamine resistant strain, in vitro culture, read-out: EC50 on P. falciparum 7G8), roughly 18 nM; in the data set with P. falciparum Dd2 (DD2, Chloroquine, Pyrimethamine and Mefloquine resistant strain, in vitro culture, read-out: EC50 on P. falciparum Dd2) it was roughly 15 nM. Further, in the data set on P. berghei, the “Complete Protection - Mice” value was 0% of treated mice. The compound also gave a Survival after treatment in the data set on P. berghei of 15 to 25 days.

Take `CCOP(=O)(/C=C/C(NC(=O)[C@H](CC(C)C)NC(=O)[C@H](CO[C@H]1O[C@@H]2OC3(C)CC[C@H]4[C@H](C)CC[C@@H]([C@H]1C)[C@@]24OO3)NC(=O)OCc1ccccc1)c1ccccc1)OCC` (stereo in doubt) [Compound 3, Benzyl ((2S)-1-(((2S)-1-(((E)-3-(diethoxyphosphoryl)-1-phenylallyl)amino)-4-methyl-1-oxopentan-2-yl)amino)-1-oxo-3-(((3R,5aS,6R,8aS,9R,10S,12R,12aR)-3,6,9-trimethyldeca hydro-12H-3,12-epoxy[1,2]dioxepino[4,3-i]isochromen-10-yl)oxy)propan-2-yl)carbamate]: the EC50 worked out at 3.3 nM in the data set with P. falciparum 3D7 (3D7, 48 h); 0.23 nM in the data set with P. falciparum 7G8 (setting [1]); 3.5 nM in the data set on P. falciparum Dd2 (setting [2]); 3820 ± 161 nM in the data set on A549 human cells. Also, in the data set on P. berghei, the “protection in treated group of mice” value was found to be 100%. Further, the “Complete Protection - Mice” value in the data set on P. berghei is 100% of treated mice. Besides, the Survival after treatment with P. berghei was greater than 60 days. Also, the “in vitro toxicity on A549 human cells (in words)” value in the data set on A549 human cells is “non-toxic”.

For the compound `CCOP(=O)(/C=C/C(NC(=O)[C@H](Cc1ccccc1)NC(=O)[C@H](CO[C@H]1O[C@@H]2O[C@@]3(C)CC[C@H]4[C@H](C)CC[C@@H]([C@H]1C)[C@@]24OO3)NC(=O)OCc1ccccc1)c1ccccc1)OCC` (mixture of isomers) [Compound 2, Benzyl ((2S)-1-(((2S)-1-(((E)-3-(diethoxyphosphoryl)-1-phenylallyl)amino)-1-oxo-3-phenylpropan-2-yl)amino)-1-oxo-3-(((3R,5aS,6R,8aS,9R,10S,12R,12 aR)-3,6,9-trimethyldeca hydro-12H-3,12-epoxy[1,2]dioxepino[4,3-i]isochromen-10-yl)oxy)propan-2-yl)carbamate], the concentration for a half-maximal effect (EC50) with P. falciparum 3D7 (3D7, 48 h) came out at 2.7 nM; with P. falciparum 7G8 (setting [1]) it was 0.47 nM; in the data set with P. falciparum Dd2 (setting [2]), 1.9 nM; in the data set with A549 human cells, 14600 ± 175 nM.
